Measured values from ChEMBL document CHEMBL5143618, “Design, synthesis, and antitumor activity evaluation of novel acyl sulfonamide spirodienones” (Bioorg Med Chem, 2022).
pIC50: −log10 of the molar value. Calls of active or inactive are those of the source. The calls are words filed in the database; no cut-off is given here.

Experiments:
A549 [1] = assay: Antiproliferative activity against human A549 cells assessed as inhibition of cell growth; type: functional, cell-based
HeLa [2] = assay: Antiproliferative activity against human HeLa cells assessed as inhibition of cell growth; type: functional, cell-based
MDA-MB-231 [3] = assay: Antiproliferative activity against human MDA-MB-231 cells assessed as inhibition of cell growth; type: functional, cell-based
A549 [4] = assay: cells; type: functional, cell-based; settings: Homo sapiens, A549, 74 h
Description: Antiproliferative activity against human A549 cells assessed as inhibition of cell growth measured after 74 hrs by SRB assay

[5] = Acute toxicity in Kunming mouse assessed as pathological changes in heart at 100 to 250 mg/kg, ip single dose by hematoxylin and eosin staining based assay; type: organism-based; settings: in vivo, dose 100-250 mg/kg
MDA-MB-231 [6] = assay: Induction of cell cycle arrest in human MDA-MB-231 cells assessed as accumulation of cells in S phase at 10 uM incubated for 24 hrs by PI staining based flow cytometry analysis (reference value: 16.61 %); type: functional
4T1 [7] = assay: Antitumor activity against mouse 4T1 cells inoculated orthotopic mouse assessed as apoptotic cells in tumor tissue by TUNEL assay (reference value: 3.13%); type: functional
[8] = Toxicity in orthotopic mouse inoculated with mouse 4T1 cells assessed as body weight loss at 10 mg/kg, ip administered every day measured after 14 days; type: organism-based; settings: in vivo, 336 h, time 14 day
[9] = Toxicity in orthotopic mouse inoculated with mouse 4T1 cells assessed as appearance of lesions in kidney at 10 mg/kg, ip administered every day measured after 14 days by hematoxylin and eosin staining based assay; type: organism-based; settings: in vivo, 336 h, time 14 day
4T1 [10] = assay: Antitumor activity against mouse 4T1 cells inoculated orthotopic mouse assessed as decrease in tumor weight at 10 mg/kg, ip administered every day measured after 14 days; type: functional, organism-based; settings: time 14.0 day
[11] = Acute toxicity in female Kunming mouse assessed as body weight gain at 100 to 250 mg/kg, ip single dose measured up to 2 weeks; type: organism-based; settings: in vivo, 336 h, dose 100-250 mg/kg
[12] = Toxicity in orthotopic mouse inoculated with mouse 4T1 cells assessed as appearance of lesions in lung at 10 mg/kg, ip administered every day measured after 14 days by hematoxylin and eosin staining based assay; type: organism-based; settings: in vivo, 336 h, time 14 day
MDA-MB-231 [13] = assay: Induction of apoptosis in human MDA-MB-231 cells assessed as early apoptotic cells at 10 uM incubated for 24 hrs by annexin V-FITC and PI staining based flow cytometry analysis (reference value: 4.66 %); type: functional
[14] = Acute toxicity in female Kunming mouse assessed as clinical signs of toxicity in eyes at 100 to 250 mg/kg, ip single dose measured up to 2 weeks; type: organism-based; settings: in vivo, 336 h, dose 100-250 mg/kg
MDA-MB-231 [15] = assay: Induction of apoptosis in human MDA-MB-231 cells assessed as late apoptotic cells at 10 uM incubated for 24 hrs by annexin V-FITC and PI staining based flow cytometry analysis (reference value: 1.02 %); type: functional
[16] = Acute toxicity in Kunming mouse assessed as mortality at 100 mg/kg, ip single dose; type: organism-based; settings: in vivo
[17] = Acute toxicity in Kunming mouse assessed as mortality at 150 mg/kg, ip single dose; type: organism-based; settings: in vivo, read-out: Activity
[18] = Toxicity in orthotopic mouse inoculated with mouse 4T1 cells assessed as appearance of lesions in spleen at 10 mg/kg, ip administered every day measured after 14 days by hematoxylin and eosin staining based assay; type: organism-based; settings: in vivo, 336 h, time 14 day
[19] = Acute toxicity in male Kunming mouse assessed as clinical signs of toxicity in fur at 100 to 250 mg/kg, ip single dose measured up to 2 weeks; type: organism-based; settings: in vivo, 336 h, dose 100-250 mg/kg
[20] = Acute toxicity in male Kunming mouse assessed as body weight gain at 100 to 250 mg/kg, ip single dose measured up to 2 weeks; type: organism-based; settings: in vivo, 336 h, dose 100-250 mg/kg
MDA-MB-231 [21] = assay: Induction of apoptosis in human MDA-MB-231 cells assessed as viable cells at 10 uM incubated for 24 hrs by annexin V-FITC and PI staining based flow cytometry analysis (reference value: 93.6 %); type: functional; settings: read-out: Activity
[22] = Acute toxicity in female Kunming mouse assessed as clinical signs of toxicity in skin at 100 to 250 mg/kg, ip single dose measured up to 2 weeks; type: organism-based; settings: in vivo, 336 h, dose 100-250 mg/kg
MDA-MB-231 [23] = assay: Induction of cell cycle arrest in human MDA-MB-231 cells assessed as accumulation of cells in G1 phase at 10 uM incubated for 24 hrs by PI staining based flow cytometry analysis (reference value: 74.44 %); type: functional
4T1 [24] = assay: Antitumor activity against mouse 4T1 cells inoculated orthotopic mouse assessed as change in gross appearance of tumor at 10 mg/kg, ip administered every day measured after 14 days; type: functional, organism-based; settings: time 14.0 day
4T1 [25] = assay: Antitumor activity against mouse 4T1 cells inoculated orthotopic mouse assessed as reduction in tumor volume at 10 mg/kg, ip administered every day measured after 14 days (reference value: 623 mm3); type: functional; settings: time 14 day
[26] = Acute toxicity in Kunming mouse assessed as pathological changes in liver at 100 to 250 mg/kg, ip single dose by hematoxylin and eosin staining based assay; type: organism-based; settings: in vivo, dose 100-250 mg/kg
[27] = Acute toxicity in Kunming mouse assessed as mortality at 200 mg/kg, ip single dose; type: organism-based; settings: in vivo, read-out: Activity
[28] = Acute toxicity in Kunming mouse assessed as mortality at 250 mg/kg, ip single dose; type: organism-based; settings: in vivo, read-out: Activity
[29] = Acute toxicity in Kunming mouse assessed as pathological changes in lung at 100 to 250 mg/kg, ip single dose by hematoxylin and eosin staining based assay; type: organism-based; settings: in vivo, dose 100-250 mg/kg
[30] = Acute toxicity in female Kunming mouse assessed as drug tolerance at 100 to 250 mg/kg, ip single dose measured up to 2 weeks; type: organism-based; settings: in vivo, 336 h, dose 100-250 mg/kg
HeLa [31] = assay: cells; type: functional, cell-based; settings: Homo sapiens, 74 h
Description: Antiproliferative activity against human HeLa cells assessed as inhibition of cell growth measured after 74 hrs by SRB assay

[32] = Acute toxicity in male Kunming mouse assessed as drug tolerance at 100 to 250 mg/kg, ip single dose measured up to 2 weeks; type: organism-based; settings: in vivo, 336 h, dose 100-250 mg/kg
[33] = Acute toxicity in Kunming mouse assessed as pathological changes in spleen at 100 to 250 mg/kg, ip single dose by hematoxylin and eosin staining based assay; type: organism-based; settings: in vivo, dose 100-250 mg/kg
HepG2 = assay: Antiproliferative activity against human HepG2 cells assessed as inhibition of cell growth measured after 74 hrs by SRB assay; type: functional, cell-based; settings: HepG2, 74 h
4T1 [34] = assay: Antitumor activity against mouse 4T1 cells inoculated orthotopic mouse assessed as tumor growth inhibition ratio at 10 mg/kg, ip administered every day measured after 14 days; type: functional; parameters: scale not given: the % may be the effect or the level left; settings: time 14 day
[35] = Toxicity in orthotopic mouse inoculated with mouse 4T1 cells assessed as appearance of lesions in heart at 10 mg/kg, ip administered every day measured after 14 days by hematoxylin and eosin staining based assay; type: organism-based; settings: in vivo, 336 h, time 14 day
[36] = Toxicity in orthotopic mouse inoculated with mouse 4T1 cells assessed as side effects at 10 mg/kg, ip administered every day measured after 14 days; type: organism-based; settings: in vivo, 336 h, time 14 day
MDA-MB-231 [37] = assay: Induction of apoptosis in human MDA-MB-231 cells assessed as necrotic cells at 10 uM incubated for 24 hrs by annexin V-FITC and PI staining based flow cytometry analysis (reference value: 0.68 %); type: functional
MDA-MB-231 [38] = assay: cells; type: functional, cell-based; settings: Homo sapiens, MDA-MB-231, 74 h
Description: Antiproliferative activity against human MDA-MB-231 cells assessed as inhibition of cell growth measured after 74 hrs by SRB assay

[39] = Acute toxicity in male Kunming mouse assessed as clinical signs of toxicity in skin at 100 to 250 mg/kg, ip single dose measured up to 2 weeks; type: organism-based; settings: in vivo, 336 h, dose 100-250 mg/kg
[40] = Acute toxicity in male Kunming mouse assessed as clinical signs of toxicity in eyes at 100 to 250 mg/kg, ip single dose measured up to 2 weeks; type: organism-based; settings: in vivo, 336 h, dose 100-250 mg/kg
[41] = Acute toxicity in Kunming mouse assessed as pathological changes in kidney at 100 to 250 mg/kg, ip single dose by hematoxylin and eosin staining based assay; type: organism-based; settings: in vivo, dose 100-250 mg/kg
[42] = Acute toxicity in female Kunming mouse assessed as clinical signs of toxicity in fur at 100 to 250 mg/kg, ip single dose measured up to 2 weeks; type: organism-based; settings: in vivo, 336 h, dose 100-250 mg/kg
[43] = Toxicity in orthotopic mouse inoculated with mouse 4T1 cells assessed as appearance of lesions in liver at 10 mg/kg, ip administered every day measured after 14 days by hematoxylin and eosin staining based assay; type: organism-based; settings: in vivo, 336 h, time 14 day
MDA-MB-231 [44] = assay: Induction of cell cycle arrest in human MDA-MB-231 cells assessed as accumulation of cells in G2/G1 phase at 10 uM incubated for 24 hrs by PI staining based flow cytometry analysis (reference value: 1.80 %); type: functional
MDA-MB-231 [45] = assay: Induction of cell cycle arrest in human MDA-MB-231 cells assessed as accumulation of cells in G2 phase at 10 uM incubated for 24 hrs by PI staining based flow cytometry analysis (reference value: 8.95 %); type: functional
[46] = Toxicity in orthotopic mouse inoculated with mouse 4T1 cells assessed as liver cell swelling at 10 mg/kg, ip administered every day measured after 14 days by hematoxylin and eosin staining based assay; type: organism-based; settings: in vivo, 336 h, time 14 day
[47] = Toxicity in orthotopic mouse inoculated with mouse 4T1 cells assessed as hardened skin at 10 mg/kg, ip administered every day measured after 8 days; type: organism-based; settings: in vivo, 192 h, time 8 day
[48] = Toxicity in orthotopic mouse inoculated with mouse 4T1 cells assessed as sparse and dull hair at 10 mg/kg, ip administered every day measured after 8 days; type: organism-based; settings: in vivo, 192 h, time 8 day

Cc1ccc(S(=O)(=O)N2CCOC23C=CC(=O)C=C3)cc1
pIC50 (A549 [1]): 6.48 | pIC50 (HeLa [2]): 6.15 | pIC50 (MDA-MB-231 [3]): 6.41

Cc1ccc(S(=O)(=O)N2C(=O)COC23C=CC(=O)C=C3)cc1
pIC50 (A549 [4]): 6.96 | Activity [5]: Non-Toxic | Activity (MDA-MB-231 [6]): 24.06% | Activity (4T1 [7]): 95.64% | Activity [8]: Non-Toxic | Activity [9]: Non-Toxic | Activity (4T1 [10]): Active | Activity [11]: Non-Toxic | Activity [12]: Non-Toxic | Activity (MDA-MB-231 [13]): 10.9% | Activity [14]: Non-Toxic | Activity (MDA-MB-231 [15]): 3% | Activity [16]: Non-Toxic | mortality [17]: 30% | Activity [18]: Non-Toxic | Activity [19]: Non-Toxic | Activity [20]: Non-Toxic | viability at 10 µM (MDA-MB-231 [21]): 85.4% | Activity [22]: Non-Toxic | Activity (MDA-MB-231 [23]): 65.65% | Activity (4T1 [24]): Active | Activity (4T1 [25]): 376 mm3 | Activity [26]: Non-Toxic | mortality [27]: 50% | mortality [28]: 60% | Activity [29]: Non-Toxic | Activity [30]: Non-Toxic | pIC50 (HeLa [31]): 6.74 | Activity [32]: Non-Toxic | Activity [33]: Non-Toxic | pIC50 (HepG2): < 5.00 | Activity (4T1 [34]): 39% | Activity [35]: Non-Toxic | Activity [36]: Non-Toxic | Activity (MDA-MB-231 [37]): 0.72% | pIC50 (MDA-MB-231 [38]): 7.15 | Activity [39]: Non-Toxic | Activity [40]: Non-Toxic | Activity [41]: Non-Toxic | Activity [42]: Non-Toxic | Activity [43]: Non-Toxic | Activity (MDA-MB-231 [44]): 1.8% | Activity (MDA-MB-231 [45]): 10.29%

COc1cccc2c1C(=O)c1c(O)c3c(c(O)c1C2=O)C[C@@](O)(C(=O)CO)C[C@@H]3O[C@H]1C[C@H](N)[C@H](O)[C@H](C)O1 [DOXORUBICIN]
Activity (4T1 [7]): 82.57% | Activity [8]: 19% | Activity (4T1 [10]): Active | Activity [46]: Toxic | Activity (4T1 [24]): Active | Activity (4T1 [25]): 265 mm3 | Activity [47]: Toxic | Activity (4T1 [34]): 50% | Activity [48]: Toxic
